The results in this text go back to ChEMBL document CHEMBL1201862, “PubChem BioAssay data set” (2004).

Active and inactive are the calls of the source. Some results are limits rather than exact numbers.

For series [1], the target named is Cytochrome P450 3A4 (Homo sapiens, UniProt P08684).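 Further: CYP3A4 tested as one member of a cytochrome P450 panel screen.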
Series [2] has as its target T1, High affinity choline transporter 1 (Homo sapiens, UniProt Q9GZV3).
T1 sequence (Q9GZV3 whole entry): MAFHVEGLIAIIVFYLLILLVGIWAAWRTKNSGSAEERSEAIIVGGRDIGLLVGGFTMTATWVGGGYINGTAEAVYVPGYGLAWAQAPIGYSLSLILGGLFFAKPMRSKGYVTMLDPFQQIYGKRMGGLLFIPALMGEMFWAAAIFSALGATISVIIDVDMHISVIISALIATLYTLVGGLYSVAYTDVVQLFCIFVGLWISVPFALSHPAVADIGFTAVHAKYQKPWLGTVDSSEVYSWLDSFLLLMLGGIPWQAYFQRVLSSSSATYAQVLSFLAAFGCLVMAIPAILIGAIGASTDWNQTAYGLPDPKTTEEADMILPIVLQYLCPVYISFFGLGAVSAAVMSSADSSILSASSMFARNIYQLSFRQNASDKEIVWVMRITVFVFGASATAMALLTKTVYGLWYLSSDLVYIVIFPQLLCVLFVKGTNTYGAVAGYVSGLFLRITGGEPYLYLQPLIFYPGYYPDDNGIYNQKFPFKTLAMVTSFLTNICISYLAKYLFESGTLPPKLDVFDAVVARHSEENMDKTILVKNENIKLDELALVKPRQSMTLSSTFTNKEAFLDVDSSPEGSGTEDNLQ
Nature of the series: human choline transporter blockers, potency – cell-based, 5-point CRC, membrane potential dye, dose response (AID 504840). Format: functional.

Series [3] can be described thus: HIV-1 AD8 envelope cell-cell fusion blockers – cherry-pick, dose response (AID 652062).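 Further: luciferase signal from cell-cell fusion driven by HIV-1 clade B AD8 Env; potency is for inhibitors of fusion seen as a drop in luminescence.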 Format: functional, cell-based.
The target in series [4] is T2, Polyadenylate-binding protein 1 (Homo sapiens, UniProt P11940). Nature of the series: MLLE domain peptide-binding blockers, IC50 – biochemical, fluorescence polarization, FITC-PAM2 peptide, dose response (AID 602259). Type of series: functional. The following applies: read-out: IC50_Mean. A general note: In fluorescence polarisation assays a small probe gives low polarisation when free and higher when bound to something large.
T2 sequence (P11940 whole entry, the tested form may be a part): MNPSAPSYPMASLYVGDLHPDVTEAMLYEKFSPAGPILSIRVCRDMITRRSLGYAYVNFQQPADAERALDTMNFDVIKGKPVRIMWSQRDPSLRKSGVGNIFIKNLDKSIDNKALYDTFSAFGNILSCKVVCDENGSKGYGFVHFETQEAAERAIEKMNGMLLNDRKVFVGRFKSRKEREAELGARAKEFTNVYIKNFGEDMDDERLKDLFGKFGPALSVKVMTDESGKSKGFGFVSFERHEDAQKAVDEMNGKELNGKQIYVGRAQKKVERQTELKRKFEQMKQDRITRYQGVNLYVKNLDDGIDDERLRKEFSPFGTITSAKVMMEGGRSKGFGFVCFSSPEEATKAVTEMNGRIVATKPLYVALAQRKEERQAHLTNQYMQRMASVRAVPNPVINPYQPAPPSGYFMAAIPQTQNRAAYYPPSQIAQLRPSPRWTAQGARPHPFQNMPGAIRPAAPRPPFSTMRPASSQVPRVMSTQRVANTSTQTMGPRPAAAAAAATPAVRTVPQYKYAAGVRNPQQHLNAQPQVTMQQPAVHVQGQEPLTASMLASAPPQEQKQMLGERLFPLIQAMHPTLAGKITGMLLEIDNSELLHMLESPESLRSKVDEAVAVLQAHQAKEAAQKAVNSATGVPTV

Series [5] deals with T2, Polyadenylate-binding protein 1. Kind of series: MLLE binding blockers, Cy5 peptide tracer – biochemical, fluorescence polarization, Cy5-PAM2 peptide, secondary, miRNA deadenylation inhibitor project, dose response (AID 602260). Format: functional. The settings on record: read-out: IC50_Mean.
In series [6] the target is Heat shock protein HSP 90-alpha (Homo sapiens, UniProt P07900). Type of series: functional, organism-based.
The target of series [7] is Voltage-dependent T-type calcium channel subunit alpha-1H (Homo sapiens, UniProt O95180). Format: functional.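 Further: channel activity triggered by adding a high calcium stimulation buffer.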
Sequence of Voltage-dependent T-type calcium channel subunit alpha-1H (O95180 whole entry): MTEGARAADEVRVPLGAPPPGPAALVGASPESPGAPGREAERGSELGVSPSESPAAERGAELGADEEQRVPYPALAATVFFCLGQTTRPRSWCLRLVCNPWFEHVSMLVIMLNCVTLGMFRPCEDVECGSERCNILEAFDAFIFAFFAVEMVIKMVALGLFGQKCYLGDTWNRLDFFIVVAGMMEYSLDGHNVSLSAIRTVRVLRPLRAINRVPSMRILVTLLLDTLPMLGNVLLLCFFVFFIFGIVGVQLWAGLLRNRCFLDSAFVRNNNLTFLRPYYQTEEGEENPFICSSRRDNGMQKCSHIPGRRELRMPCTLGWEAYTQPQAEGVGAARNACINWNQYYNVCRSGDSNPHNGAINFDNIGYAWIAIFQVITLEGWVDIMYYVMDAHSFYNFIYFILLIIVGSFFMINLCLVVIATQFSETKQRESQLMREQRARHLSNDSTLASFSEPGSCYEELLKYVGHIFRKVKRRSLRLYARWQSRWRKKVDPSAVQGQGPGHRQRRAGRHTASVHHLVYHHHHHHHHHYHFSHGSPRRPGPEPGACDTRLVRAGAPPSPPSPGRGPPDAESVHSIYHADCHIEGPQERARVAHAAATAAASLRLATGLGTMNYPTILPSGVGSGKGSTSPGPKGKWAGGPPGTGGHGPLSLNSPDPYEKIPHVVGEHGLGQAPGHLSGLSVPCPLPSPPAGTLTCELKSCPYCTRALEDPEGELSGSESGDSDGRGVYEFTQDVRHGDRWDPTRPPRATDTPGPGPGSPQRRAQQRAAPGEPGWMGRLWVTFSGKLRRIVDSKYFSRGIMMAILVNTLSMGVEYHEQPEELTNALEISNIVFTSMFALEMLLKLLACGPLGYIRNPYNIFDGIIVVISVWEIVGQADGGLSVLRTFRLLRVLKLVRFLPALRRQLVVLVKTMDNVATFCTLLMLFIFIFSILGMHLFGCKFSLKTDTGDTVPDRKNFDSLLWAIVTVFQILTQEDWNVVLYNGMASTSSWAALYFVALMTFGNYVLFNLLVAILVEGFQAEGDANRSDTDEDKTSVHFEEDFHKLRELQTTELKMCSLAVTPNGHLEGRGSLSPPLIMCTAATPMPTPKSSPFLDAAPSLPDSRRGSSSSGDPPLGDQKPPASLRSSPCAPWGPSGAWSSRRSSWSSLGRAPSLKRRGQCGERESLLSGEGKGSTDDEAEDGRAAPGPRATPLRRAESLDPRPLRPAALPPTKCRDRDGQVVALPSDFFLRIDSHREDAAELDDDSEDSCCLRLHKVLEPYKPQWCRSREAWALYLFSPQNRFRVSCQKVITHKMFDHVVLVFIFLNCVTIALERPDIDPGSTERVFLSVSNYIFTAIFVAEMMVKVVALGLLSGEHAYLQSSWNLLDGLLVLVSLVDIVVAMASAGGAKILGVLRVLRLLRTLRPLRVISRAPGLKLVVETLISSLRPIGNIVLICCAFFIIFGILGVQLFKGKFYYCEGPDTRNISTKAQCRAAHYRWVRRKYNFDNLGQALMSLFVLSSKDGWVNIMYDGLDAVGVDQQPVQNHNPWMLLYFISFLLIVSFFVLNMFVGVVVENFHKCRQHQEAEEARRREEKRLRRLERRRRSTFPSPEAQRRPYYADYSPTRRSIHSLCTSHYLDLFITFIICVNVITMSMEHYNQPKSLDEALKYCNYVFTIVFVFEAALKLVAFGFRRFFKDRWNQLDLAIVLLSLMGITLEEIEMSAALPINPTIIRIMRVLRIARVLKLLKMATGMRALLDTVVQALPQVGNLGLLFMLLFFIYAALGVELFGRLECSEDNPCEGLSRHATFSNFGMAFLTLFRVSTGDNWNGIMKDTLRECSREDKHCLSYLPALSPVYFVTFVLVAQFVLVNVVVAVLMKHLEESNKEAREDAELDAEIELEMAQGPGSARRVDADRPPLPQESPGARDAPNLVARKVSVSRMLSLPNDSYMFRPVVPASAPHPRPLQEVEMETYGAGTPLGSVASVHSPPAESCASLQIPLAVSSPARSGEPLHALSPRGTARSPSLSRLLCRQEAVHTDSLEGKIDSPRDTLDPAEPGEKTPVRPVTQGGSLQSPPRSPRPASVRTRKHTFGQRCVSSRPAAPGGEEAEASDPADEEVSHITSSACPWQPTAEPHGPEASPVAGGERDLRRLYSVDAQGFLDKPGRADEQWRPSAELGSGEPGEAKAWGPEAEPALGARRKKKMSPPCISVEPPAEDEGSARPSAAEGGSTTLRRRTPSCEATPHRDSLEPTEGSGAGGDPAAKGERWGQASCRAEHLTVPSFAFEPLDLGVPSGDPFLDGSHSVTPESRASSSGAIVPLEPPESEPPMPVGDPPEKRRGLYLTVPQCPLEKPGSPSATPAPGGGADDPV
Series [8] has as its target T3, Ubiquitin-conjugating enzyme E2 N (Homo sapiens, UniProt P61088).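 Further: Dose-response confirmation in a TR-FRET assay detecting UBC13-driven polyubiquitin chain formation, inhibition measured.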
T3 sequence (P61088 whole entry): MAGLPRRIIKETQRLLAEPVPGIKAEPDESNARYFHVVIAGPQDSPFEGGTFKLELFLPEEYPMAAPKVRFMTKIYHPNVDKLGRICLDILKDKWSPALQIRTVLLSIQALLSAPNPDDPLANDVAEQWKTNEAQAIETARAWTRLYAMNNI
Type of series: functional.

Series [9] can be described thus: Trypanosoma cruzi growth suppression in host cells – NIH3T3 host cells, beta-gal luminescence, confirmation (AID 2044).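 Further: intracellular parasites grown in NIH/3T3 mouse fibroblasts as host cells; luminescent beta-galactosidase reporter signal from transgenic T. cruzi replicating inside host cells; inhibitors lower the luminescence signal.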 Format: functional, cell-based.
A short description of series [10]: NIH3T3 cell viability loss – ATP luminescence, mouse fibroblasts, counter-screen, dose response (AID 2010).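 Further: cells exposed to compound for about 90 hours before reading.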 Type of series: functional, cell-based.
Series [11] in a line: Luminescence Cell-Based Dose Retest to Confirm Inhibitors of Cancer Stem Cells. [Related pubchem assays (depositor defined):AID2717, AID2721]. Format: functional. The settings on record: Homo sapiens.
Series [12] can be described thus: viability of PTEN-deleted HCT116 cells – cell-based, HCT116 PTEN knockout, dose response (AID 1047).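 Further: HCT116 colon tumor cells with PTEN knocked out; cells exposed to compound for 60 hours before readout; potency for loss of cell viability measured by luminescence.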 Format: functional.
A short description of series [13]: viability of HCT116 lacking mutant beta-catenin – cell-based, human colon tumor, dose response (AID 1045).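 Further: HCT116 colon tumor cells with beta catenin knocked out; cells exposed to compound for 60 hours.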 Type of series: functional.
For series [14], the target named is Cytochrome P450 2D6 (Homo sapiens, UniProt P10635).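 Further: CYP2D6 member of a cytochrome P450 panel assay.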
For series [15], the target named is Cytochrome P450 2C9 (Homo sapiens, UniProt P11712).
Sequence of Cytochrome P450 2C9 (P11712 whole entry): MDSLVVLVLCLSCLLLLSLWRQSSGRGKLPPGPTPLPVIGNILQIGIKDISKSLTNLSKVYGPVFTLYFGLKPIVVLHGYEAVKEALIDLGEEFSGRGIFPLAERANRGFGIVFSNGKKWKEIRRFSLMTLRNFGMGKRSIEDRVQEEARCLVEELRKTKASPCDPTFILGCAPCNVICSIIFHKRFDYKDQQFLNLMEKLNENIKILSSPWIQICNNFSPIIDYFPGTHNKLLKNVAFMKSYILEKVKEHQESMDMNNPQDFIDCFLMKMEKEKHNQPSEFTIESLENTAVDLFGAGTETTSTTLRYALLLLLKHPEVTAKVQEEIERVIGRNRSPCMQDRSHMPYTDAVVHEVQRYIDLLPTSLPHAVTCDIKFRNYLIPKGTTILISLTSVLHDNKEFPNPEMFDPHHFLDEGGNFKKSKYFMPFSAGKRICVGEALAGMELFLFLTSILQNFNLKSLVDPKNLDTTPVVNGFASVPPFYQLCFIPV
Series [16] concerns the target T4, Cytochrome P450 1A2 (Homo sapiens, UniProt P05177).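 Further: PubChem cytochrome P450 panel assay, CYP1A2 panel member.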
T4 sequence (P05177 whole entry): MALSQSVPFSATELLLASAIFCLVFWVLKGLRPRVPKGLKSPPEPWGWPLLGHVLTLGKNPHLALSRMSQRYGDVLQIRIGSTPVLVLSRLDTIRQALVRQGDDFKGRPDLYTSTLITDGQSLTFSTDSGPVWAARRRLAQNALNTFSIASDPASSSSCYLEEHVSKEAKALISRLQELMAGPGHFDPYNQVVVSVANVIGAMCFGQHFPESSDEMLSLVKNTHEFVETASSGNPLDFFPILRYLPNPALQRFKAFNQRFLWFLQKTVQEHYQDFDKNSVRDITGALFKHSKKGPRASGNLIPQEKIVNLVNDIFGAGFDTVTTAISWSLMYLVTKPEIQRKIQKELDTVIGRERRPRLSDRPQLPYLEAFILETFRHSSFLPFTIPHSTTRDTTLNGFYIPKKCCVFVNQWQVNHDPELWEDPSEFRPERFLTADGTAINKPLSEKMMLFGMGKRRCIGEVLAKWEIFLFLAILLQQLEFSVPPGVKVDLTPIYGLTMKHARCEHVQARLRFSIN

The target in series [17] is Large T antigen (Simian virus 40, UniProt P03070). Type of series: functional, Betapolyomavirus macacae.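 Further: Confirmatory-stage PubChem screen for compounds that inhibit SV40 T antigen.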
Sequence of Large T antigen (P03070 whole entry): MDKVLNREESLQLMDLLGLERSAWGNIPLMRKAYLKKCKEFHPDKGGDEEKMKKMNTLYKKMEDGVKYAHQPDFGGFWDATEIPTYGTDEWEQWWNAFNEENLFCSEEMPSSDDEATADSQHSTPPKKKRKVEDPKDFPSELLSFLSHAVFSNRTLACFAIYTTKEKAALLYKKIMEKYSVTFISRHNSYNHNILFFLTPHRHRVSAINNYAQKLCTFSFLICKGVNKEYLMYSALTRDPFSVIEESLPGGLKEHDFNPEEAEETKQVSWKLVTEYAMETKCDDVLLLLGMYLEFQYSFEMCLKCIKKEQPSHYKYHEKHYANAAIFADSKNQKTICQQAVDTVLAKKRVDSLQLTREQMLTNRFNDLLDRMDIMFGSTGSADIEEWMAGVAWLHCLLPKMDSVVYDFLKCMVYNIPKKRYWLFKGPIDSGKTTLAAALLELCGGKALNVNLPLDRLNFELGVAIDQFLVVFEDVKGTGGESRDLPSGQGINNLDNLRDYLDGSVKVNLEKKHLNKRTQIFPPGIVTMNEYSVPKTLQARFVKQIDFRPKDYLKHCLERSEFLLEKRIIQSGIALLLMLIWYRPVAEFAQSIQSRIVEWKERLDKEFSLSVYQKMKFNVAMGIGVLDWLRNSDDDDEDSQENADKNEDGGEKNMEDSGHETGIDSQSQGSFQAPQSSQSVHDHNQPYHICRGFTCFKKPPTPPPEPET
The target of series [18] is T5, Replicative DNA helicase DnaB (Mycobacterium tuberculosis, UniProt P9WMR3).
T5 sequence (P9WMR3 whole entry): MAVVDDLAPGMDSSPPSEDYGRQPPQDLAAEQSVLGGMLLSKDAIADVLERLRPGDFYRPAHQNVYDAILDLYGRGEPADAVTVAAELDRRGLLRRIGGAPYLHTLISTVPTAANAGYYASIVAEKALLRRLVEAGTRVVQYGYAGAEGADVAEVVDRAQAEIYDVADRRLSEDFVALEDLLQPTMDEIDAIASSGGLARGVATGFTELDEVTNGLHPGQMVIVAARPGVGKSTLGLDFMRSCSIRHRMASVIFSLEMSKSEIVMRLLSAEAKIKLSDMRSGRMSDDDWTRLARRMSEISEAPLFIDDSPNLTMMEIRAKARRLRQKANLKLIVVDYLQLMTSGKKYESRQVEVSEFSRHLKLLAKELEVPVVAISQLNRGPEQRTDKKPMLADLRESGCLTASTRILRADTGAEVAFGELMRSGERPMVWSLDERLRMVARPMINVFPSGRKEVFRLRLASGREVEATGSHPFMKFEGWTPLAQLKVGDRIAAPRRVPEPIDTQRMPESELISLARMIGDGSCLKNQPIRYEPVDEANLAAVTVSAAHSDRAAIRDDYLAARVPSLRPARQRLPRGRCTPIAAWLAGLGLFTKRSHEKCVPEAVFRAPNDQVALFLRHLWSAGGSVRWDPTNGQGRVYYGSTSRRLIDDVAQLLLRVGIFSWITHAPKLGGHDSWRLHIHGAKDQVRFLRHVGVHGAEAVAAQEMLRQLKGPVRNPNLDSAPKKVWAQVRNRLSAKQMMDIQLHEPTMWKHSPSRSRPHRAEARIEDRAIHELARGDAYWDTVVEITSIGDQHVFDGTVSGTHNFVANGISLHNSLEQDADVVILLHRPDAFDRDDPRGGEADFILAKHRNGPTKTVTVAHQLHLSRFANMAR
Kind of series: DnaB intein splicing inhibitors, dose response, biochemical, cell-free fluorescence (AID 449749). Type of series: functional.

Series [19] deals with T6, Protein RecA (Mycobacterium tuberculosis, UniProt P9WHJ3).
T6 sequence (P9WHJ3 whole entry): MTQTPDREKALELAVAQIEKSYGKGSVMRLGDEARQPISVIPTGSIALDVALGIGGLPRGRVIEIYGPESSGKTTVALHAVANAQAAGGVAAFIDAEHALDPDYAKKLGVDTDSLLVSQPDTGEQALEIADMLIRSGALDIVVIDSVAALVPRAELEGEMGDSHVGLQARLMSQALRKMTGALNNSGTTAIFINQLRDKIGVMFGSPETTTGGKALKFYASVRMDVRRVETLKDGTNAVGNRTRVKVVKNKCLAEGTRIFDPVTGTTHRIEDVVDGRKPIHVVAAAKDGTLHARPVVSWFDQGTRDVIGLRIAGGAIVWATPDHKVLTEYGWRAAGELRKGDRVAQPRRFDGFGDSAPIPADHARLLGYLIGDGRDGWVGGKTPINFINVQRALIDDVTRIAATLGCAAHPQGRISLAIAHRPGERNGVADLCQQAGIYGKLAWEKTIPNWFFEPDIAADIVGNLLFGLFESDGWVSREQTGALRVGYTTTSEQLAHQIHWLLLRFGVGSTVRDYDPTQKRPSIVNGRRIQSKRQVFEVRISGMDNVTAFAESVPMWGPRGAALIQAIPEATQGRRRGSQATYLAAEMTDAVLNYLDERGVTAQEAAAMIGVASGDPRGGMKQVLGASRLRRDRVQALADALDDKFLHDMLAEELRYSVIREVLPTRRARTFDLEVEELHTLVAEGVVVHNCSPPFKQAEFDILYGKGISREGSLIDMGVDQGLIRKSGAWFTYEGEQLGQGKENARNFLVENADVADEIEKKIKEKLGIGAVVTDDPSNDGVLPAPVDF
Nature of the series: Fluorescence Cell-Free Homogeneous Dose Retest to Identify Inhibitors of RecA-Intein Splicing Activity. [Related pubchem assays (depositor defined):AID2097, AID2223, AID489010, AID492950]. Format: functional.

In series [20] the target is Cytochrome P450 2C19 (Homo sapiens, UniProt P33261). Nature of the series: Cytochrome panel assay with activity outcomes. Panel member name: p450-cyp2c19 Compounds with AC50 equal or less than 10 uM are considered active. Type of series: functional. The following applies: read-out: AC50.
Sequence of Cytochrome P450 2C19 (P33261 whole entry): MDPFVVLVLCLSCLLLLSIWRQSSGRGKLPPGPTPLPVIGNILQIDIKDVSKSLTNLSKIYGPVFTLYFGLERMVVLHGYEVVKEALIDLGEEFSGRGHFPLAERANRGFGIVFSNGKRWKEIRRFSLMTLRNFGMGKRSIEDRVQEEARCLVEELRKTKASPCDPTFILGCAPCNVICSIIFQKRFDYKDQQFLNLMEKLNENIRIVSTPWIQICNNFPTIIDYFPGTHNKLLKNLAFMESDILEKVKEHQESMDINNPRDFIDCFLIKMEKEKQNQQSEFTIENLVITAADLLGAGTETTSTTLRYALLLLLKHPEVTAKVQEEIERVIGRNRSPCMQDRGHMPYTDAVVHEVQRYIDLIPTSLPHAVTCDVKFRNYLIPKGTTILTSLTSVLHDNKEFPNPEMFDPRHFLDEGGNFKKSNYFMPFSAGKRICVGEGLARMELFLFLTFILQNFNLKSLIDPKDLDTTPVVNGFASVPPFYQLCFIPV

In general, AC50 refers to the concentration giving half of the maximal activity seen. As a reminder, the EC50 is the midpoint of the concentration-response curve.

As for `CCc1cc2c(NCc3ccco3)ncnc2s1`, the AC50 in series [1] was 25.1 µM (inconclusive); in series [3], 32.3 µM (active). The IC50 in [2] is 10 µM (active). Take `CN1C(=O)SC(Nc2ccccc2C(=O)O)C1=O` (centres undefined): the IC50 in series [4] and in [5] was > 66 µM (inactive) throughout.

Turning to `Cc1cc(N2CCN(C(=O)c3ccco3)CC2)n2ncc(-c3ccccc3)c2n1`, the AC50 in [6] is 2.23 µM (active).

For the molecule `CN1CCN(C(=S)NC(=O)c2ccc(S(=O)(=O)N3CCOCC3)cc2)CC1`, the IC50 in series [4] and in series [5] was > 66 µM (inactive) in each case. On to `COc1ccccc1N1CCN(C(c2ccccc2Cl)c2nnnn2C(C)(C)C)CC1` (centres undefined), for which, in series [7], the EC50 was 11.7 µM (active). Consider `COc1ccc(C(CNC(=O)c2cc3c(s2)CCC(C)C3)N2CCCC2)cc1` (centres undefined), for which, in series [8], the IC50 is > 20 µM (inactive). Same read-out and setting: with `CC(C)[C@@H]1CN=C(N)N1C[C@@H]1CCCN1C[C@H](C)N1C[C@@H](Cc2ccccc2)N(CCc2ccc(Cl)c(Cl)c2)C1=N` the figure was > 20 µM (inactive). Consider `COc1cc(CNCCc2c[nH]c3ccccc23)ccc1OCc1ccccc1F`, for which the EC50 in series [9] was 196 nM (active); in series [10], > 60 µM (inconclusive); in series [12], 15.3 µM (active); in [13] it was 13.6 µM (active). In addition, the IC50 in [8] is > 20 µM (inactive). The AC50 in series [11] was 4.72 µM (active). For `Cc1cnc(CNc2ccnc(-c3cccnc3)n2)cn1`, the AC50 in series [14] is 25.1 µM (inconclusive); in [15], “inconclusive”. For the molecule `Cc1cc(C)cc(NC(=O)CCc2nc3ccccc3[nH]2)c1`, the results for the AC50 in series [16] and in [15] were 3.16 µM (inconclusive) and “inconclusive”, respectively. Regarding `O=C1C=CC(=O)N1c1ccc(O)cc1`, the AC50 in [6] was 3.13 µM (active). In series [17], the IC50 is 81 µM (active). In the case of `CN(C)/C=C/C(=O)c1ccc2noc(-c3cccc(F)c3)c2c1`, the AC50 in series [6] was 7.95 µM (active). As for `CCC(c1nnnn1C(C)(C)C)N1CCN(c2cc(Cl)ccc2C)CC1` (centres undefined), the EC50 in series [7] was 5.94 µM (active).

As for `Cc1ccc(-c2nnc(CSc3nnc(COc4ccccc4)n3-c3ccccc3)o2)cc1`, the EC50 in series [7] is 3.32 µM (active). As to `Nc1ccc(S(=O)(=O)Nc2nccs2)cc1` [SULFATHIAZOLE], the AC50 entry in series [15] is on record as “inconclusive”. As for `COc1ccccc1N1CCN(CC(=O)c2c(C)[nH]c3cc(C)ccc23)CC1`, the AC50 in [18] is 5.47 µM (active). Further, the EC50 was 94.2 µM (active) in [19] and 5.63 µM (active) in [7]. As for `Cc1ccc(S(=O)(=O)N[C@H]2COC(=O)C/C=C\[C@@H](C)COC(=O)C/C=C\[C@@H]2C)cc1`, the AC50 result in series [15] is “inconclusive”.

Regarding `C/C(=N\OC(=O)c1cccc(C)c1)c1sc(-c2ccccc2)nc1C`, the AC50 in [20] was 8.91 µM (inconclusive); in series [15], “inconclusive”. For `COC(=O)c1c(NC(=O)c2nc3ccccc3s2)sc2c1CCN(C(C)=O)C2`, the IC50 in series [8] was > 20 µM (inactive). Still for that read-out and setting: with `CC1CCCCN1CCNC(=O)c1ccc2c(=O)n(Cc3ccc(Cl)cc3)c(=S)[nH]c2c1` (centres undefined) the figure was > 20 µM (inactive). In the case of `O=C(Nc1cccc(S(=O)(=O)NC2=NCCC2)c1)c1cc(Cl)ccc1[N+](=O)[O-]`, the IC50 in series [2] is 11.8 µM (active).

On to `CN1CCN(c2ncc3nc(-c4cc(F)cc(F)c4)c(=O)n(C)c3n2)CC1`, for which the AC50 in series [16] was 5.01 µM (inconclusive); in series [15], “inconclusive”. Take `Cc1ccc(C(c2nnnn2C(C)(C)C)N(Cc2ccco2)Cc2cccs2)cc1` (centres undefined): the values for the EC50 in [7], in series [9] and in [10] were 6.33 µM (active), 2260 nM (active) and > 30 µM (not active), respectively. Regarding `CCN(CC)c1ccc(/C=C2/C(=O)NC(=O)N(CC3CCCO3)C2=O)cc1` (centres undefined), the AC50 result in [15] was “inconclusive”. Consider `COc1ccc(Sc2nnc(Cc3ccccc3)c3ccccc23)cc1`, for which the IC50 in series [4] and in series [5] was > 66 µM (inactive) in each case.
